Assay results taken from patent US20230357179A1, “RAF KINASE INHIBITORS AND METHODS OF USE THEREOF” (Deciphera Pharmaceuticals, LLC, priority 2021, published 2023).

How the values were obtained:
[1] = target: T1, C-Raf kinase (Homo sapiens, UniProt P04049, Y340D/Y341D); test: Biochemical assay for C-Raf.1 (coupled pyruvate kinase/lactate dehydrogenase); settings: read-out: CRAF.1 IC50
T1 construct: Y340D,; GST (N); purchased Sigma
How it was run: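 C-Raf (0.43 nM) with MEK 30.1 nM and 1 mM ATP in Tris pH 7.5/MgCl2 buffer, activity coupled via PK/LDH to NADH oxidation (A340), 6 h at 30° C. Rates from 4–5 h window converted to % inhibition versus controls; IC50 by four-parameter fit, 1% DMSO.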

[2] = tested on: A375 cells; test: A375 cell proliferation assay (1), resazurin, 96-well; format: cell-based; settings: Homo sapiens, A-375, inhibition of cell proliferation
How it was run: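 Viability was read by resazurin fluorescence at 540 nm excitation and 600 nm emission, using a 440 μM solution added for 5–6 h at the end of culture. IC50 came from the curve fit.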

[3] = tested on: Miapaca-2 cells; test: MiaPaca-2 cell proliferation assay (1), resazurin, 96-well; format: cell-based; settings: Homo sapiens, MIA PaCa-2, inhibition of cell proliferation
Procedure: MiaPaca-2 Cell Proliferation Assay (1)
Miapaca-2 cells (catalog #CRL-1420) are obtained from the American Type Culture Collect (ATTC, Manassas, VA). Briefly, cells were grown in DMEM supplemented with 10% characterized fetal bovine serum (Invitrogen, Carlsbad, CA), 2.5% New Zealand sourced horse serum and 1% Penicillin/Streptomycin/L-Glutamine at 37° C., 5% CO2, and 95% humidity. Cells are expanded until reaching 70-95% confluency at which point they are subcultured or harvested for assay use. A serial dilution of test compound is dispensed into a 96-well black clear bottom plate in triplicate. Three thousand cells are added per well in 200 μL complete growth medium in the 96-well plate. Plates are incubated for 67-72 hours at 37° C., 5% CO2, and 95% humidity. At the end of the incubation, 40 μL of a 440 μM solution of resazurin (Sigma, St. Louis, MO) in PBS is added to each well of the plate and plates are incubated for an additional 5-6 hours at 37° C., 5% CO2, and 95% humidity. Plates are read on a Synergy2 or equivalent reader (Biotek, Winooski VT) using an excitation of 540 nm and an emission of 600 nm. Data is analyzed using Prism software (GraphPad, San Diego, CA) to calculate IC50 values.

T1 sequence (P04049 307-648 Y340D/Y341D): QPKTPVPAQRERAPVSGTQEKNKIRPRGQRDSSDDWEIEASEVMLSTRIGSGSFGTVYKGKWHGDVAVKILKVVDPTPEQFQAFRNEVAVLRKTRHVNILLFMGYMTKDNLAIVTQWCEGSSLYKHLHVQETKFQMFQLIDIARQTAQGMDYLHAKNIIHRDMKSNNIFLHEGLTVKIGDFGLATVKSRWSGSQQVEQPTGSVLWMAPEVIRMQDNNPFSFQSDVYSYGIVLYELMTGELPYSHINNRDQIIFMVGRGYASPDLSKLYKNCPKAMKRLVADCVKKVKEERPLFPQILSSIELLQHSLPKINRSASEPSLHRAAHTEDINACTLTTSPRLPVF

Row | SMILES | IC50 [1] | IC50 [2] | IC50 [3]
1 | COC(=O)Nc1cc(-c2cc(-c3cc(NC(=O)NC[C@H]4CCO4)c(F)cc3C)cc(OCCO)n2)ccn1 [Example 96] | 100 to 500 nM | 1000 to 10000 nM | –
2 | CNC(=O)c1cc(-c2cnnc(-c3cc(NC(=O)NCCC(C)(C)OC)c(F)cc3C)c2)ccn1 [Example 123] | 500 to 1000 nM | 1000 to 10000 nM | 1000 to 10000 nM
3 | COC(=O)Nc1cc(-c2cc(-c3cc(NC(=O)NCCN4CCC4)c(F)cc3C)cc(OCCO)n2)ccn1 [Example 125] | > 1000 nM | 1000 to 10000 nM | –
4 | COC(=O)Nc1cc(-c2nccc(-c3cc(NC(=O)NCCC(C)(C)OC)c(F)cc3C)n2)ccn1 [Example 129] | ≤ 100 nM | 1000 to 10000 nM | –
5 | Cc1ncc(NC(=O)NCCC(C)(C)F)cc1-c1nccc(-c2ccnc(NC(=O)C3CC3)c2)n1 [Example 130] | ≤ 100 nM | 1000 to 10000 nM | –
6 | Cc1cc(F)c(NC(=O)NCCC(C)(C)C)cc1-c1cc(-c2ccnc(NC(=O)C3CC3)c2)cnn1 [Example 131] | ≤ 100 nM | ≤ 100 nM | 1000 to 10000 nM
7 | CNC(=O)c1cc(-c2cnnc(-c3cc(NC(=O)NCCC(C)(C)F)c(F)cc3C)c2)ccn1 [Example 132] | 100 to 500 nM | 1000 to 10000 nM | 1000 to 10000 nM
8 | Cc1ncc(NC(=O)NCCC2(C)CC2)cc1-c1cc(OCCO)nc(-c2ccnc(NC(=O)C3CC3)c2)n1 [Example 133] | ≤ 100 nM | 500 to 1000 nM | 1000 to 10000 nM
9 | Cc1cc(F)c(NC(=O)NCCC2(C)CC2)cc1-c1ccnc(-c2ccnc(NC(=O)C3CC3)c2)c1 [Example 134] | ≤ 100 nM | 1000 to 10000 nM | –
10 | COC(=O)Nc1cc(-c2nccc(-c3cc(NC(=O)NCCC4(C)CC4)cnc3C)n2)ccn1 [Example 135] | ≤ 100 nM | 1000 to 10000 nM | –
11 | Cc1ncc(NC(=O)NCCC(C)(C)F)cc1-c1ccnc(-c2ccnc(NC(=O)C3CC3)c2)n1 [Example 136] | ≤ 100 nM | 1000 to 10000 nM | –
12 | COC1(CCNC(=O)Nc2cnc(C)c(-c3ccnc(-c4ccnc(NC(=O)C5CC5)c4)n3)c2)CC1 [Example 137] | ≤ 100 nM | 1000 to 10000 nM | –
13 | COC(=O)Nc1cc(-c2cccc(-c3cc(NC(=O)NCCC4(OC)CC4)cnc3C)c2)ncn1 [Example 138] | ≤ 100 nM | 1000 to 10000 nM | –
14 | Cc1cc(F)c(NC(=O)NCCC(C)(C)F)cc1-c1cc(-c2ccnc(NC(=O)C3CC3)c2)cnn1 [Example 139] | ≤ 100 nM | 1000 to 10000 nM | 1000 to 10000 nM

Second part, the molecule after the results:

Row | IC50 [1] | IC50 [2] | IC50 [3] | SMILES
15 | ≤ 100 nM | 500 to 1000 nM | 1000 to 10000 nM | Cc1ccc(NC(=O)Nc2cccc(C(F)(F)F)c2)cc1-c1cc(OCCO)nc(N2CCOCC2)c1 [Example 3, 1-(3-(2-(2-hydroxyethoxy)-6-morpholinopyridin-4-yl)-4-methylphenyl)-3-(3-(trifluoromethyl)phenyl)urea]
16 | ≤ 100 nM | 500 to 1000 nM | 1000 to 10000 nM | Cc1ccc(NC(=O)NCCC(C)(C)C)cc1-c1cc(N2CCOCC2)nc(N2CCOCC2)c1 [Example 4]
17 | ≤ 100 nM | 1000 to 10000 nM | 1000 to 10000 nM | COC1(CCNC(=O)Nc2cc(-c3ccnc(-c4ccnc(NC(=O)C5CC5)c4)n3)c(C)cc2F)CC1 [Example 117]
18 | ≤ 100 nM | 1000 to 10000 nM | 1000 to 10000 nM | Cc1ncc(NC(=O)NCCC2(C)CC2)cc1-c1ccnc(-c2ccnc(NC(=O)C3CC3)c2)c1 [Example 118]
19 | ≤ 100 nM | 1000 to 10000 nM | 1000 to 10000 nM | COC(C)(C)CCNC(=O)Nc1cnc(C)c(-c2cc(-c3ccnc(NC(=O)C4CC4)c3)cnn2)c1 [Example 121]
20 | ≤ 100 nM | 500 to 1000 nM | 1000 to 10000 nM | COC(=O)Nc1nccc(-c2cc(OCCO)cc(-c3cc(NC(=O)NCCC4(C)CC4)c(F)cc3C)c2)n1 [Example 122]
21 | ≤ 100 nM | 1000 to 10000 nM | – | CCC(C)CCNC(=O)Nc1cnc(C)c(-c2ccnc(-c3ccnc(NC(=O)C4CC4)c3)c2)c1 (centres unmarked) [Example 124]
22 | ≤ 100 nM | 100 to 500 nM | – | Cc1ncc(NC(=O)NC2CC(C)(C)C2)cc1-c1cc(OCCO)nc(-c2ccnc(NC(=O)C3CC3)c2)c1 [Example 126]
23 | ≤ 100 nM | 1000 to 10000 nM | – | Cc1cc(F)c(NC(=O)NCCC(C)(C)F)cc1-c1cccc(-c2cc(NC(=O)C3CC3)ncn2)c1 [Example 127]
24 | ≤ 100 nM | 1000 to 10000 nM | – | Cc1cc(F)c(NC(=O)NCCC(C)(C)F)cc1-c1ccnc(-c2ccnc(NC(=O)C3CC3)c2)n1 [Example 128]
